According to patent publication US11420958B2, “Aryl and heteroaryl substituted indole compounds” (BRISTOL-MYERS SQUIBB COMPANY, priority 2017, dated 2022):

Key:
Assay type in all cases: cell-based
human TLR7 = human TLR7 (Homo sapiens (Human), UniProt Q9NYK1); assay: TLR7 inhibition reporter assay (HEK-Blue, SEAP); details: HEK-Blue cells overexpressing human TLR7, gardiquimod 7.5 μM stimulation
In short: (§1)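 Cells are treated with compound over a 0.05 nM–50 μM final range for 30 min at room temperature before agonist addition: gardiquimod at 7.5 μM for TLR7, R848 at 15.9 μM for TLR8, ODN2006 at 5 nM for TLR9. SEAP is measured after 22 h at 37 °C.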

human TLR8 = human TLR8 (Homo sapiens (Human), UniProt Q9NR97); assay: TLR8 inhibition reporter assay (HEK-Blue, SEAP); details: HEK-Blue cells overexpressing human TLR8, R848 15.9 μM stimulation
In short: as §1

human TLR9 = human TLR9 (Homo sapiens (Human), UniProt Q9NR96); assay: TLR9 inhibition reporter assay (HEK-Blue, SEAP); details: HEK-Blue cells overexpressing human TLR9, ODN2006 5 nM stimulation
In short: as §1

Sequence of human TLR8 (Q9NR97 27-1041): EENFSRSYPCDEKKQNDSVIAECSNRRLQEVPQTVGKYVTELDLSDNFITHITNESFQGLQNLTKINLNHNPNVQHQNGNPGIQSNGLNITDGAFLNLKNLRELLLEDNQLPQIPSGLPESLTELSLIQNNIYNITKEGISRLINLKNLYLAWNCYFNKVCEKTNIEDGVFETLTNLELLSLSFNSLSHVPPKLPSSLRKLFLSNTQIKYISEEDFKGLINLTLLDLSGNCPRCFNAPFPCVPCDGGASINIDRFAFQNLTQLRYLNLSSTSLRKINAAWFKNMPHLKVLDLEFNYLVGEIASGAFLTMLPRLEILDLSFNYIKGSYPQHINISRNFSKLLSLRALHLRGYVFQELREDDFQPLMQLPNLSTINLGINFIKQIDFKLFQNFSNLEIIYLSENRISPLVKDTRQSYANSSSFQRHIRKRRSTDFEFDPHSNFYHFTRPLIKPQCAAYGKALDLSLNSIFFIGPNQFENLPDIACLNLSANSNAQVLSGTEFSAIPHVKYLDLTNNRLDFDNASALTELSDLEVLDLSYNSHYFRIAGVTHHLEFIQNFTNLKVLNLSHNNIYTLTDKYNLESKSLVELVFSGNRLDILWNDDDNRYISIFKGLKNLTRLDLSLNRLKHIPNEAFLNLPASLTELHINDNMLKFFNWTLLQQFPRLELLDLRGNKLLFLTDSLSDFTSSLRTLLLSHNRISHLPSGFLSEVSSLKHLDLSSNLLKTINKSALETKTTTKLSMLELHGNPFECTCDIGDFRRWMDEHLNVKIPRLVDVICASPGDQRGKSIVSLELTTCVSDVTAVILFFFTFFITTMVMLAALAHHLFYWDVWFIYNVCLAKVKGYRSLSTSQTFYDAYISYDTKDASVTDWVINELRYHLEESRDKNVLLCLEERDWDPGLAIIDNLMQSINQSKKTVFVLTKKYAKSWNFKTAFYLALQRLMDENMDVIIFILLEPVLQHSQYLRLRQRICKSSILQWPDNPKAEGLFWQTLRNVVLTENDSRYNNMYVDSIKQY
Sequence of human TLR9 (Q9NR96 26-1032): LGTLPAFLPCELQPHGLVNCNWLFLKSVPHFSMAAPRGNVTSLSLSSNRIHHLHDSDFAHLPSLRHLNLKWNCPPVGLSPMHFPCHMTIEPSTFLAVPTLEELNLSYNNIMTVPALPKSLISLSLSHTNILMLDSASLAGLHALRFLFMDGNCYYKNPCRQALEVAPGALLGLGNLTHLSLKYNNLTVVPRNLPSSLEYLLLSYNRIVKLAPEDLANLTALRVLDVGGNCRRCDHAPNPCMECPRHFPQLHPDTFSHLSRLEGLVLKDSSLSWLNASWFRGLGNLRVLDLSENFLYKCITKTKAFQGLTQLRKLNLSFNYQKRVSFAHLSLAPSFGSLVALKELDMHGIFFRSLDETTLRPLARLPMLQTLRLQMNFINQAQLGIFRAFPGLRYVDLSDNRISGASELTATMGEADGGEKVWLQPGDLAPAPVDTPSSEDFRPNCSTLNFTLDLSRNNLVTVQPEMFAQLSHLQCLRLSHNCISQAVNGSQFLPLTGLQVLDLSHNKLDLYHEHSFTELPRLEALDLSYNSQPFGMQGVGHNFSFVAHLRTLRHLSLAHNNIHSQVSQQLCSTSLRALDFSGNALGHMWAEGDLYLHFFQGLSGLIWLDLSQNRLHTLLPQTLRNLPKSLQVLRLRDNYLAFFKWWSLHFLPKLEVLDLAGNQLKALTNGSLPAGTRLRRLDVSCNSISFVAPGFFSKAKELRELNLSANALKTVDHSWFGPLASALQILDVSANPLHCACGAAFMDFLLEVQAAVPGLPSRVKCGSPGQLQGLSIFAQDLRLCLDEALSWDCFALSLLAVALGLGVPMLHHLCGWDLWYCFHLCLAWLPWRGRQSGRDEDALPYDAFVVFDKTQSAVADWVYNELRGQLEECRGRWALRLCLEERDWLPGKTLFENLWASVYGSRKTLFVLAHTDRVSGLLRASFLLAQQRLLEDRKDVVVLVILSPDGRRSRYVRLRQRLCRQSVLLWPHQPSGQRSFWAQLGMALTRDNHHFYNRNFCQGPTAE
Sequence of human TLR7 (Q9NYK1 27-1049): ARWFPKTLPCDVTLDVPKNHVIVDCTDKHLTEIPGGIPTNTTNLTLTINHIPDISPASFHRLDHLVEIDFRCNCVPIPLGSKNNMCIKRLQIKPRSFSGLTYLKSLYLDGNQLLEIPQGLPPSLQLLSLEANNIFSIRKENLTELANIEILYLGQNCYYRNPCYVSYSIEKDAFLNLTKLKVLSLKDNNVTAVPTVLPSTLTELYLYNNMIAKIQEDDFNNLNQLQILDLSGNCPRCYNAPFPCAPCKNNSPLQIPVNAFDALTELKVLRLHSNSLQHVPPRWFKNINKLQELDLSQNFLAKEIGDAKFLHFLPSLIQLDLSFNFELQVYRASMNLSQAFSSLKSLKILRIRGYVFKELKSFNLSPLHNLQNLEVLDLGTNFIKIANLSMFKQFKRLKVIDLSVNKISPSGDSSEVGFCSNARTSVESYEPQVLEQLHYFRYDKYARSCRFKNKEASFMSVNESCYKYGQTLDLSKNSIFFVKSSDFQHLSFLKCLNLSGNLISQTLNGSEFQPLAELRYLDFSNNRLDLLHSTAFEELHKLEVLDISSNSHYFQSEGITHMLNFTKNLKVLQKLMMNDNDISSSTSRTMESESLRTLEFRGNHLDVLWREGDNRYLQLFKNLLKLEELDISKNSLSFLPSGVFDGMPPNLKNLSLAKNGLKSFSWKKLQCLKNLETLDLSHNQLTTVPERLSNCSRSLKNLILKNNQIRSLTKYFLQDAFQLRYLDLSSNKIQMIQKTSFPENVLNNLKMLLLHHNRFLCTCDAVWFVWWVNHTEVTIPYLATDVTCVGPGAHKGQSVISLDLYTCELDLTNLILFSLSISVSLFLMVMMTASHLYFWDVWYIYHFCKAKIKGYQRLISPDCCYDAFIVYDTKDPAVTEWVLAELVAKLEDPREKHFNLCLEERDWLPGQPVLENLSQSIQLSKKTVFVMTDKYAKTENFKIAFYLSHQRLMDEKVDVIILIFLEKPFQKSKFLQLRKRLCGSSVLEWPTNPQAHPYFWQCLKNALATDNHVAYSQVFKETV

SMILES | IC50 (human TLR7) [nM] | IC50 (human TLR8) [nM] | IC50 (human TLR9) [nM]
CCc1c(-c2ccc(OC)c(OC)c2)[nH]c2ccc(-c3noc(CCNC)n3)cc12 [Example 460, 2-(3-(2-(3,4-dimethoxyphenyl)-3-ethyl-1H-indol-5-yl)-1,2,4-oxadiazol-5-yl)-N-methylethan-1-amine] | 539 | 7.3 | 2680
CCc1c(-c2ccnc(C)c2)[nH]c2ccc(-c3noc(C4CC5(CCNCC5)C4)n3)cc12 [Example 461, 3-(3-ethyl-2-(2-methylpyridin-4-yl)-1H-indol-5-yl)-5-(7-azaspiro[3.5]nonan-2-yl)-1,2,4-oxadiazole] | 321 | 72 | 1540
CC(C)c1c(-c2ccnc3[nH]ncc23)[nH]c2ccc(-c3noc([C@@H]4CCCNC4)n3)cc12 [Example 462, (R)-3-(3-isopropyl-2-(1H-pyrazolo[3,4-b]pyridin-4-yl)-1H-indol-5-yl)-5-(piperidin-3-yl)-1,2,4-oxadiazole] | 156 | 4.1 | 1900
CCc1c(-c2ccc(OC)c(OC)c2)[nH]c2ccc(-c3noc([C@@H](N)CCCN)n3)cc12 [Example 463, (S)-1-(3-(2-(3,4-dimethoxyphenyl)-3-ethyl-1H-indol-5-yl)-1,2,4-oxadiazol-5-yl)butane-1,4-diamine] | 772 | 126 | 7150
CCc1c(-c2ccc(OC)c(OC)c2)[nH]c2ccc(-c3noc([C@@H](N)CCCCN)n3)cc12 [Example 464, (S)-1-(3-(2-(3,4-dimethoxyphenyl)-3-ethyl-1H-indol-5-yl)-1,2,4-oxadiazol-5-yl)pentane-1,5-diamine] | 1650 | 183 | 2730
COc1ccc(-c2[nH]c3ccc(-c4cc[nH]c4)cc3c2C(C)C)cc1OC [Example 465, 2-(3,4-dimethoxyphenyl)-3-isopropyl-5-(1H-pyrrol-3-yl)-1H-indole] | 305 | 81 | 33000
CCc1c(-c2ccc(OC)c(OC)c2)[nH]c2ccc(-c3cccnc3)cc12 [Example 466, 2-(3,4-dimethoxyphenyl)-3-ethyl-5-(pyridin-3-yl)-1H-indole] | 3880 | 368 | > 50000
CC(C)c1c(-c2ccnc3[nH]ncc23)[nH]c2ccc(-c3cccnc3)cc12 [Example 467, 4-(3-isopropyl-5-(pyridin-3-yl)-1H-indol-2-yl)-1H-pyrazolo[3,4-b]pyridine] | 208 | 18 | 24200
CC(C)c1c(-c2ccnc3[nH]ncc23)[nH]c2ccc(-c3ccc4nccnc4c3)cc12 [Example 468, 6-(3-isopropyl-2-(1H-pyrazolo[3,4-b]pyridin-4-yl)-1H-indol-5-yl)quinoxaline] | 450 | 35 | 47300
CC(C)c1c(-c2ccnc3[nH]ncc23)[nH]c2ccc(-c3ccc4ncccc4c3)cc12 [Example 469, 6-(3-isopropyl-2-(1H-pyrazolo[3,4-b]pyridin-4-yl)-1H-indol-5-yl)quinoline] | 606 | 129 | > 50000
CC(C)c1c(-c2ccnc3[nH]ncc23)[nH]c2ccc(-c3cccc4cnccc34)cc12 [Example 470, 5-(3-isopropyl-2-(1H-pyrazolo[3,4-b]pyridin-4-yl)-1H-indol-5-yl)isoquinoline] | 2590 | 56 | > 50000
CCc1c(-c2ccc(OC)c(OC)c2)[nH]c2ccc(-c3ccncc3)cc12 [Example 471, 2-(3,4-dimethoxyphenyl)-3-ethyl-5-(pyridin-4-yl)-1H-indole] | 2180 | 238 | 42300
COc1ccc(-c2[nH]c3ccc(-c4nnc([C@H]5CCCNC5)o4)cc3c2CC(F)(F)F)cc1OC [compound 57] | 31 | 10 | 1470
